Experimental data: a melting point compilation (Tetko et al.; mined from patent text by program, amines drawn as free bases though some values may be those of a salt)

First: CCCCOc1ccc(-c2ccc(-c3ccc(-c4ccc(-c5ccc(OCCCC)cc5)s4)c4nsnc34)s2)cc1
Second: CC(=NOCCOc1ccc(CC2SC(=O)NC2=O)cc1)c1ccc(-c2ccccc2)cc1 (configuration not stated)
The melting point of the first is higher: 330 to 331 °C for the first, 164 to 166 °C for the second.

First: CCOC(=O)N1CCN(c2nc(=O)c3cccnc3s2)CC1
Second: CCNc1cccnc1N1CCN(C(=O)c2ccc(C(=O)O)cn2)CC1
The melting point of the first is lower: 139 to 140 °C for the first, 155 to 157 °C for the second.

First: NC(C(=O)O)c1ccsc1 (configuration not stated)
Second: COC(=O)C(C)n1nnc2ccc(O)cc21 (configuration not stated)
The melting point of the first is higher: 283 to 285 °C for the first, 132 to 134 °C for the second.

First: CCCc1cnc2c(c1)C(=O)OC2=O
Second: CCCCn1c(=O)n(CCCC2CO2)c(=O)c2c1ncn2C (configuration not stated)
The melting point of the first is lower: 42 to 44 °C for the first, 76 to 78 °C for the second.

First: COc1cc(OC)c2c(c1)S(=O)(=O)N(COC(=O)c1c(Cl)cccc1Cl)C2=O
Second: COC(=O)c1cc2cc(OC)c(OC)cc2c(-c2ccncc2)c1C(=O)OC
The melting point of the first is higher: 200 to 201 °C for the first, 196 to 198 °C for the second.

First: O=C(O)c1ccc(OC2=C3N=C4CCCCC4=C3C(Cc3ccc(Cl)cc3)C=C2)o1 (configuration not stated)
Second: COC(=O)Cc1c(Cl)nc(-c2ccccc2)n1Cc1ccc(C)cc1
The melting point of the first is higher: 162 to 164 °C for the first, 92 to 95 °C for the second.

First: C[C@H](NS(=O)(=O)c1ccc2c(Cl)cnc(Cl)c2c1)C(=O)OC(C)(C)C
Second: CC(C)Oc1c(-c2ccc(S(N)(=O)=O)cc2)cnn(CC(F)(F)F)c1=O
The melting point of the first is lower: 115 to 119 °C for the first, 158 to 160 °C for the second.

Compared with `C#CCOC(C(=O)O)c1ccc(Cl)cc1` (configuration not stated), `O=C(O)C(F)(F)c1cccc(OCc2ccccc2Cl)c1OCc1ccccc1Cl` is lower in melting point: 69 to 70 °C for the first, 55 to 57 °C for the second.

First: COCCOc1ccc(C=O)c(O)c1
Second: COc1ccc(C=CCC#N)cc1
The melting point of the first is lower: 64.5 to 65.5 °C for the first, 75 to 76 °C for the second.

First: CNCc1ccc(CSCCNC2=NS(=O)(=O)N=C2NC)o1
Second: CSC(=C[N+](=O)[O-])NCCSCc1ccsn1
The melting point of the first is lower: 50 to 56 °C for the first, 64.5 to 65.5 °C for the second.

First: Cc1nc(C[C@H]2OC[C@H](c3ccc(F)cc3)CO2)nc(C(=O)NCC(=O)O)c1O
Second: Cn1ncc(/C=C/C(=O)Nc2ccc(CC(=O)O)cc2)c1-c1ccc(F)cc1
The melting point of the first is lower: 209 °C for the first, 245 to 246 °C for the second.

First: CCOCc1nc2c(N)nc3cc(OCc4nccn4C)ccc3c2n1CC(C)(C)O
Second: CCCCc1nc2c(N)nc3ccccc3c2n1CCOCCCc1ccccc1
The melting point of the first is higher: 200 to 202 °C for the first, 80.8 to 81.3 °C for the second.

First: CC(C)C[C@H](NC(=O)OCc1ccc(Cl)cc1)C(=O)N[C@@H](Cc1ccccc1)C(=O)CSCc1ccco1
Second: CC(C)(C)OC(=O)N[C@@H](Cc1ccccc1)[C@@H](O)C[C@@H](Cc1ccc(O)cc1)C(=O)N[C@H]1c2ccccc2C[C@H]1O
The melting point of the first is lower: 123 to 124 °C for the first, 218 to 219 °C for the second.

Compared with `Cc1cc(-n2cncn2)ncc1[N+](=O)[O-]`, `N#Cc1cnc2c(cc([N+](=O)[O-])c3nncc32)c(-c2ccccc2Cl)n1` is lower in melting point: 198 to 200 °C for the first, 193 to 196 °C for the second.

First: CCc1cc(C(=O)c2ccccc2Cl)c(-n2cnnc2CNC(=O)c2ccc(Cl)c(Cl)c2)s1
Second: CC(C)n1nc(-c2sc(NC(=O)c3ccc(F)cc3)nc2-c2ccccc2)ccc1=O
The melting point of the first is lower: 158 to 160 °C for the first, 225 to 226 °C for the second.

Compared with `Cc1cc(=O)c(OCc2ccccc2)c(C(=O)NC2CCCCC2)n1C`, `Nn1c(C2CCCCC2)nnc(-c2ccccc2)c1=O` is lower in melting point: 258 to 260 °C for the first, 178 to 180 °C for the second.

First: O=C(NC1=NCCS1)c1cnc2c(C(F)(F)F)cccc2c1O
Second: CCOC(=O)c1ncn2c(C(F)(F)F)cc(-c3ccc(C(F)(F)F)cc3)nc12
The melting point of the first is higher: 267 to 268 °C for the first, 243 °C for the second.

Compared with `CCC(c1cc2c(-c3ccc(C(F)(F)F)n(C)c3=O)c(F)cc(Cl)c2o1)S(C)(=O)=O` (configuration not stated), `O=C(O)c1cn(-c2ccc(F)cc2)c2c(F)c(N3CCCC3)c(F)cc2c1=O` is higher in melting point: 146 to 148 °C for the first, 282 to 284 °C for the second.

First: COc1ccc(N2CCN(c3c(C)c(C)c4c(c3C)C(N3CCc5ccccc53)C(C)(C)O4)CC2)cc1 (configuration not stated)
Second: COc1ccc(Nc2ccccc2C(=O)CS(C)=O)cc1 (configuration not stated)
The melting point of the first is higher: 166 to 168 °C for the first, 115 to 116 °C for the second.

Going from `CCOC(=O)C1=C(C)Nc2c(C(=O)O)ncn2C1c1cccc([N+](=O)[O-])c1` (configuration not stated) to `CCOC(=O)C1=C(C)NC(N)=C(C(=O)OCC)C1c1cccc2ccccc12` (configuration not stated), the melting point falls from 222 °C to 174 °C.

First: CCCCCc1ccc(CC(=O)c2ccc(OC)cc2)cc1
Second: CCc1ccc(NC(=N)c2ccc(SC)cc2)cc1
The melting point of the first is lower: 62 °C for the first, 156 to 158 °C for the second.

Compared with `CSc1ccc(C=C2C(C)=C(CC(=O)O)c3cc(F)ccc32)cc1`, `COc1cc(OCC(=O)O)c(C)cc1SCc1ccc(-c2cccc(C(F)(F)F)c2)cc1` is lower in melting point: 187 to 188 °C for the first, 138 to 139 °C for the second.

First: CC1(C)CCC(C)(C)c2cc(C(N)C(=O)Nc3ccc(C(=O)O)cc3)ccc21 (configuration not stated)
Second: CCOC(=O)COc1ccc(NC(C)=O)cc1NC(=O)c1ccc(OCCCCc2ccccc2)cc1
The melting point of the first is higher: 203 to 204 °C for the first, 130 to 132 °C for the second.

`CC(C)C(S)C(=O)NC1(C(=O)NC(Cc2ccc(-c3ccccc3)nc2)C(=O)O)CCCC1` (configuration not stated) and `CC1(C)NC(=O)OC12CCN(C(=O)OCc1ccccc1)CC2` cannot be ordered by melting point: 208 to 211 °C for the first, 208 to 209 °C for the second.

First: CCOC(=O)Cc1c(C)n(Cc2cccc(OC)c2)c2ccc(OCc3csc(-c4ccccc4)n3)cc12
Second: COc1ccc(CCSc2c(O)cc(-c3ccccc3)oc2=O)cc1
The melting point of the first is lower: 85 to 86 °C for the first, 144 to 145 °C for the second.

First: OC(CN1CC=C(c2c[nH]c3ccccc23)CC1)C1COc2ccccc2O1 (configuration not stated)
Second: CC(=O)OC1CN=C(c2ccccc2Cl)c2ccccc2N(C)C1 (configuration not stated)
The melting point of the first is higher: 177 °C for the first, 129 to 131 °C for the second.

Compared with `Cc1ccc2cccc(OCc3c(Cl)ccc(S(=O)(=O)N4CCCC4C(=O)NCc4ccccc4)c3Cl)c2n1` (configuration not stated), `CC(=O)C(CCCc1ccccc1)n1ncc2c(=O)[nH]c(Cc3ccc(-c4cccnc4)cc3)nc21` (configuration not stated) is lower in melting point: 143 °C for the first, 108 °C for the second.

Compared with `Cc1ccc(Cl)cc1N1C(=O)CN(C(C)C)C1=S`, `CNS(=O)(=O)c1ccc(C)cc1C(=O)O` is lower in melting point: 142 to 144 °C for the first, 140 to 141 °C for the second.

First: O=C(Oc1ccc2c(c1)C13CCCCC1N(C2)N(C(=O)C1CC1)CC3)C1CC1 (single isomer, unassigned; (+))
Second: O=C1NC(=O)C2(c3cc(Oc4ccc(O)cc4)c(Cl)cc3F)CCCCC12 (configuration not stated)
The melting point of the first is higher: 144 °C for the first, 117 to 120 °C for the second.

First: CCOC(=O)c1ccc2c(c1)c(C#Cc1ccccc1)nn2CCC#N
Second: CC(=O)Nc1cc(O)ccc1-c1cc(=O)c2ccccc2o1
The melting point of the first is lower: 90 to 94 °C for the first, 253 to 255 °C for the second.

First: NC(CCCSc1nccc(NC(N)=NCC(F)(F)F)n1)=NO
Second: FC(F)(F)COc1ccccc1Sc1nc[nH]n1
The melting point of the first is higher: 137 to 139 °C for the first, 100 to 101 °C for the second.

First: CN1C(=O)c2cccnc2Nc2ncccc21
Second: CN1C(=O)CCC(=O)N1c1cc(-c2ccnc(Nc3cccc(Cl)c3)n2)ccn1
The melting point of the first is higher: 230 to 232 °C for the first, 201 to 204 °C for the second.

First: COc1cc(OC)c(-c2nc3cccnc3[nH]2)cc1C=CC(=O)c1ccc(S(N)(=O)=O)cc1
Second: COc1ccc(CN2C(=O)[C@@H](N3C(=O)c4ccccc4C3=O)[C@H]2/C=C/c2ccccc2)c(OC)c1 (relative stereo)
The melting point of the first is higher: greater than 260 °C for the first, 173 to 177 °C for the second.

Compared with `COC(=O)CC[C@H](NC(=O)c1ccc(C#Cc2cnc3nc(NC(=O)C(C)(C)C)nc(O)c3c2)s1)C(=O)OC`, `CC(c1ccccc1)C1(OC(=O)C(C)(C)C)C(=O)NC(=O)NC1=O` (configuration not stated) is lower in melting point: 228 to 230 °C for the first, 205 to 207 °C for the second.

`COC(=O)Cc1ccc2c(c1)CCc1ccccc1S2` and `CC(C)(C)c1ccc2c(c1)[C@H]1Cc3ccccc3[C@H]1N2` (relative stereo) fall in the same range of melting point: 103 to 105 °C for the first, 103 to 105 °C for the second.

First: Nc1c(Br)cc(S(=O)(=O)C(F)(F)F)cc1[N+](=O)[O-]
Second: CC(=O)C(=Cc1cc(O)c(O)c([N+](=O)[O-])c1)c1ccc(C)cc1
The melting point of the first is lower: 147 °C for the first, 189 to 194 °C for the second.

First: COc1ccc(S(=O)(=O)C2(C(=O)NO)CCN(C)CC2)cc1
Second: CN1CCN(C(=O)c2cc3c4ccccc4n(C)c3s2)CC1
The melting point of the first is lower: 89 °C for the first, 219 to 220 °C for the second.

First: O=C(CCNC(=O)C(=Cc1ccccc1)CSC(=O)c1ccccc1)OCc1ccccc1
Second: C=CON=C(C(=O)OCC)c1csc(NC(c2ccccc2)(c2ccccc2)c2ccccc2)n1
The melting point of the first is lower: 60 °C for the first, 114 °C for the second.

Compared with `Cn1c(N2CC3CC2CN3C(=O)c2ccccc2)nc(-c2ccncn2)cc1=O` (configuration not stated), `O=C(c1cccnc1)N1CCC=N1` is lower in melting point: 133 to 135 °C for the first, 81 to 82 °C for the second.

First: Cc1oc(-c2ccccc2)nc1COc1ccc(COc2nn(-c3ccccc3)cc2C=O)cc1
Second: Cc1nc(-c2ccc(C(F)(F)F)cc2)oc1COc1ccc(Cc2nn[nH]n2)cc1
The melting point of the first is lower: 152 to 153 °C for the first, 208 °C for the second.

Compared with `CC(Nc1ccccc1O)=C1C(=O)OC(=O)C(C(=O)C=Cc2ccc(O)cc2)=C1O`, `CCCc1c(OCCCCOc2ccc(C(=O)c3cccc(C(=O)O)c3)cc2CCC(=O)O)ccc2c1OCCC2=O` is lower in melting point: 257 to 260 °C for the first, 177 to 180 °C for the second.

First: O=P(O)(O)CCCCc1ccccc1
Second: CCCCc1nc(Cl)c(Cl)n1Cc1ccc(-n2cccc2C(=O)O)cc1
The melting point of the first is lower: 88 to 90 °C for the first, 181 to 182 °C for the second.

First: CN1CCN(c2nc3cccc4c3n2CCC4)CC1
Second: CC1CCN(c2nn3ccnc3c3c2CCCC3)CC1
The melting point of the first is higher: 112 to 113 °C for the first, 95 to 95.5 °C for the second.

First: COC(OC)C1CN=C(c2cc3sc(C)c(N(C)S(=O)(=O)c4cccs4)c3[nH]2)S1 (configuration not stated)
Second: CC1COCc2nc3c(N)nc4cc(CCC(=O)N(C)C)ccc4c3n21 (configuration not stated)
The melting point of the first is lower: 185 °C for the first, 235 to 237 °C for the second.

First: CN(C)C=C(C#N)C(=O)c1ccco1
Second: CC(C)(C)C(=O)C(Br)Cc1cccnc1 (configuration not stated)
The melting point of the first is lower: 117 to 125 °C for the first, 163 to 164 °C for the second.

Compared with `N#CCCn1[nH]c(C#N)c(N=Nc2ccc(S(=O)(=O)Cl)cc2)c1=O`, `CC#CCOc1cc(Oc2cccc(C#N)c2)ncn1` is lower in melting point: 178 to 180 °C for the first, 121 °C for the second.

Compared with `COCCCNC(N)=O`, `CSc1nc(CO)c(CO)n1C` is lower in melting point: 128 to 130 °C for the first, 119 to 120 °C for the second.

Compared with `CCCCCCCN1CCN(C(=O)C2CCC(c3cccnc3)N2)CC1` (configuration not stated), `CCN(CC)C(=O)c1[nH]c2ccccc2c1CN(Cc1cc(C(F)(F)F)cc(C(F)(F)F)c1)c1nnn(C)n1` is lower in melting point: 138 to 143 °C for the first, 98 °C for the second.

With `Cc1ccc([C@@H]2Sc3cc(COC(c4ccccc4)(c4ccccc4)c4ccccc4)ccc3N(CCN(C)C)C(=O)[C@@H]2O)cc1` the melting point was 110 to 114 °C.
